Assay results taken from patent publication EP4813980A1, “EP300/CBP REGULATOR, AND PREPARATION METHOD THEREFOR AND USE THEREOF” (Miracure Biotechnology Limited, priority 2023, dated 2025).

Assays:
vCap cells = experiment: Cell growth inhibition, CellTiter-Glo, 72 h; assay type: cell-based; conditions: Homo sapiens, 72 h culture, mean of N=2
Experimental: (§1) 22RV1, vCap, MM1S and OPM-2 cells were cultured in RPMI-1640 medium (10% fetal bovine serum and 100 units of penicillin/streptomycin dual-antibody per mL were added to RPMI-1640) in a cell incubator at 37°C with 5% CO2, respectively. Cells in logarithmic growth phase were seeded into 96-well cell culture plates at 5×10^3 cells/100 µL/well and cultured overnight. Active compounds dissolved in DMSO at different concentrations were added with a final concentration of 0.5% DMSO. 1% Tween 20 was used as positive control and 0.5% DMSO was used as negative control. After 72 h of culture, an equal volume of CellTiter-Glo was added to each well, mixed by shaking for 2 min, and left standing at room temperature for 10 min. […] signal values were read with a microplate reader. Data were analyzed and graphs were generated using Prism 7.0. The values shown are mean ± SEM (N=2). […] The formula for inhibition rate is as follows: % Inhibition = (Icompound−IZPE)/(IHPE−IZPE) × 100 [formula]
(§2) The X-axis is compound concentration (nM), and the Y-axis is % Inhibition.

22RV1 cells = experiment: Cell growth inhibition, CellTiter-Glo, 72 h; assay type: cell-based; conditions: Homo sapiens, 72 h culture, mean of N=2
Experimental: as §1, §2

| Structure (SMILES) | IC50 (vCap cells) [nM] | IC50 (22RV1 cells) [nM] |
| --- | --- | --- |
| CC(=O)N1Cc2cc(C3CCN(C(=O)CCCCCCCCNc4ccc5c(c4)n(C)c(=O)n5C4CCC(=O)NC4=O)CC3)cc(N3CCCc4cc(-c5cnn(C)c5)c(C(F)F)cc43)c2C1 (stereo not shown) [Compound 2009] | 0.01 | 0.04 |
| CNC(=O)N1CCc2cc(C3CCN(CCN4CCOC(CNc5cccc6c5C(=O)N(C5CCC(=O)NC5=O)C6=O)C4)CC3)cc(N3CCCc4cc(-c5cnn(C)c5)c(C(F)F)cc43)c2C1 (stereo not shown) [Compound 2010] | 0.193 | 0.08 |
| CNC(=O)N1CCc2cc(C3CCN(Cc4ccc(CCOc5cccc6c5CN(C5CCC(=O)NC5=O)C6=O)cc4)CC3)cc(N3CCCc4cc(-c5cnn(C)c5)c(C(F)F)cc43)c2C1 (stereo not shown) [Compound 2012] | 2.31 | 0.62 |
| CNC(=O)N1CCc2cc(C3CCN(C(=O)CCCCCCCNc4ccc5c(c4)n(C)c(=O)n5C4CCC(=O)NC4=O)CC3)cc(N3CCCc4cc(-c5cnn(C)c5)c(C(F)F)cc43)c2C1 (stereo not shown) [Compound 2013] | 0.449 | 0.01 |
| CNC(=O)N1CCc2cc(C3CCN(Cc4ccc(COc5cccc6c5CN(C5CCC(=O)NC5=O)C6=O)cc4)CC3)cc(N3CCCc4cc(-c5cnn(C)c5)c(C(F)F)cc43)c2C1 (stereo not shown) [Compound 2015, 8-(7-(difluoromethyl)-6-(1-methyl-1H-pyrazol-4-yl)-3,4-dihydroquinolin-1(2H)-yl)-6-(1-(4-(((2-(2,6-dioxopiperidin-3-yl)-1-oxoisoindolin-4-yl)oxy)methyl)benzyl)piperidin-4-yl)-N-methyl-3,4-dihydroisoquinoline-2(1H)-carboxamide] | 0.01 | 0.05 |
| CNC(=O)N1CCc2cc(C3CCN(C(=O)CCCCCCNc4cccc5c4n(C)c(=O)n5C4CCC(=O)NC4=O)CC3)cc(N3CCCc4cc(-c5cnn(C)c5)c(C(F)F)cc43)c2C1 (stereo not shown) [Compound 2016, 8-[7-(difluoromethyl)-6-(1-methylpyrazol-4-yl)-3,4-dihydro-2H-quinolin-1-yl)-6-[1-[7-[[1-(2,6-dioxo-3-piperidinyl)-3-methyl-2-oxobenzoimidazol-4-yl]amino]heptanoyl]-4-piperidinyl]-N-methyl-3,4-dihydro-1H-isoquinoline-2-carboxamide] | < 0.005 | 0.01 |
| CC(=O)N1Cc2cc(C3CCN(CCN4CCC(CNc5cccc6c5C(=O)N(C5CCC(=O)NC5=O)C6=O)CC4)CC3)cc(N3CCCc4cc(-c5cnn(C)c5)c(C(F)F)cc43)c2C1 (stereo not shown) [Compound 2019] | 1.25 | 2.43 |
| CC(=O)N1Cc2cc(C3CCN(CC4CCN(CCCc5cccc6c5C(=O)N(C5CCC(=O)NC5=O)C6=O)CC4)CC3)cc(N3CCCc4cc(-c5cnn(C)c5)c(C(F)F)cc43)c2C1 (stereo not shown) [Compound 2020] | 0.53 | 1.87 |
| CNC(=O)N1CCc2cc(C3CCN(CCN4CCC(CNc5cccc6c5C(=O)N(C5CCC(=O)NC5=O)C6=O)CC4)CC3)cc(N3CCCc4cc(-c5cnn(C)c5)c(C(F)F)cc43)c2C1 (stereo not shown) [Compound 2021] | 0.545 | 0.5 |
| CNC(=O)N1CCc2cc(C3CCN(CC4CCN(CCCc5cccc6c5C(=O)N(C5CCC(=O)NC5=O)C6=O)CC4)CC3)cc(N3CCCc4cc(-c5cnn(C)c5)c(C(F)F)cc43)c2C1 (stereo not shown) [Compound 2022] | 2.12 | 0.3 |
| COC(=O)N1Cc2cc(C3CCN(C(=O)CCOCCOCCOCCOCCNc4ccc5c(c4)C(=O)N(C4CCC(=O)NC4=O)C5=O)CC3)cc(N3CCCc4cc(-c5cnn(C)c5)c(C(F)F)cc43)c2C1 (stereo not shown) [Compound 2024] | 4610 | 3850 |
| CC(=O)N1CCc2cc(C3CCN(C(=O)CCCCCCCNc4ccc5c(c4)C(=O)N(C4CCC(=O)NC4=O)C5=O)CC3)cc(N3CCCc4cc(-c5cnn(C)c5)c(C(F)F)cc43)c2C1 (stereo not shown) [Compound 2025, 5-[[8-[4-[2-acetyl-8-[7-(difluoromethyl)-6-(1-methylpyrazol-4-yl)-3,4-dihydro-2H-quinolin-1-yl]-3,4-dihydro-1H-isoquinolin-6-yl]-1-piperidinyl]-8-oxooctyl]amino]-2-(2,6-dioxo-3-piperidinyl)isoindoline-1,3-dione] | 7530 | 3890 |
| CC(=O)N1Cc2cc(C3CCN(C(=O)CCCCCCNc4ccc5c(c4)n(C)c(=O)n5C4CCC(=O)NC4=O)CC3)cc(N3CCCc4cc(-c5cnn(C)c5)c(C(F)F)cc43)c2C1 (stereo not shown) [Compound 2027] | 0.01 | 0.04 |
| CNC(=O)N1CCc2cc(C3CCN(C(=O)CCCCCCNc4ccc5c(c4)n(C)c(=O)n5C4CCC(=O)NC4=O)CC3)cc(N3CCCc4cc(-c5cnn(C)c5)c(C(F)F)cc43)c2C1 (stereo not shown) [Compound 2028, 8-[7-(difluoromethyl)-6-(1-methylpyrazol-4-yl)-3,4-dihydro-2H-quinolin-1-yl]-6-[1-[7-[[1-(2,6-dioxo-3-piperidinyl)-3-methyl-2-oxo-benzimidazol-5-yl]amino]heptanoyl]-4-piperidinyl]-N-methyl-3,4-dihydro-1H-isoquinoline-2-carboxamide] | 0.26 | 0.1 |
| CC(=O)n1cc2cc(C3CCN(C(=O)CCCCCCOc4ccc5c(c4)n(C)c(=O)n5C4CCC(=O)NC4=O)CC3)cc(N3CCCc4cc(-c5cnn(C)c5)c(C(F)F)cc43)c2c1 (stereo not shown) [Compound 2029, 3-(5-((7-(4-(2-acetyl-7-(7-(difluoromethyl)-6-(1-methyl-1H-pyrazol-4-yl)-3,4-dihydroquinolin-1(2H)-yl)isoindol-5-yl)piperidin-1-yl)-7-oxoheptyl)oxy)-3-methyl-2-oxo-2,3-dihydro-1H-benzo[d]imidazol-1-yl)piperidine-2,6-dione] | 0.03 | 0.04 |
| CC(=O)N1Cc2cc(C3CCN(CCc4ccc(COc5cccc6c5CN(C5CCC(=O)NC5=O)C6=O)cc4)CC3)cc(N3CCCc4cc(-c5cnn(C)c5)c(C(F)F)cc43)c2C1 (stereo not shown) [Compound 2031] | 0.21 | 0.04 |
| CC(=O)N1Cc2cc(C3CCN(C(=O)CCCCC#Cc4ccc5c(c4)n(C)c(=O)n5C4CCC(=O)NC4=O)CC3)cc(N3CCCc4cc(-c5cnn(C)c5)c(C(F)F)cc43)c2C1 (stereo not shown) [Compound 2032, 3-{5-[7-(4-{2-acetyl-7-[7-(difluoromethyl)-6-(1-methylpyrazol-4-yl)-3,4-dihydro-2H-quinolin-1-yl]-1,3-dihydroisoindol-5-yl}piperidin-1-yl)-7-oxohept-1-yn-1-yl]-3-methyl-2-oxo-1,3-benzodiazol-1-yl}piperidine-2,6-dione] | 0.11 | 0.16 |
| CC(=O)n1cc2cc(C3CCN(C(=O)CN4CCC(C#Cc5cccc6c5n(C)c(=O)n6C5CCC(=O)NC5=O)CC4)CC3)cc(N3CCCc4cc(-c5cnn(C)c5)c(C(F)F)cc43)c2c1 (stereo not shown) [Compound 2048, 3-(4-((1-(2-(4-(2-acetyl-7-(7-(difluoromethyl)-6-(1-methyl-1H-pyrazol-4-yl)-3,4-dihydroquinolin-1(2H)-yl)isoindol-5-yl)piperidin-1-yl)-2-oxoethyl)piperidin-4-yl)ethynyl)-3-methyl-2-oxo-2,3-dihydro-1H-benzo[d]imidazol-1-yl)piperidine-2,6-dione] | 1.85 | 1.84 |
| CC(=O)N1Cc2cc(C3CCN(Cc4ccc(COc5cccc6c5CN(C5CCC(=O)N(CO)C5=O)C6=O)cc4)CC3)cc(N3CCCc4cc(-c5cnn(C)c5)c(C(F)F)cc43)c2C1 (stereo not shown) [Compound 2053] | 0.36 | 1.02 |
| CC(=O)N1Cc2cc(C3CCN(CCN4CCC(COc5cccc6c5CN(C5CCC(=O)NC5=O)C6=O)CC4)CC3)cc(N3CCCc4cc(-c5cnn(C)c5)c(C(F)F)cc43)c2C1 (stereo not shown) [Compound 2055] | 0.26 | 0.54 |
